Data taken from patent US4202891A, “15-Oxygenated sterol compounds and the use of such compounds to inhibit the biosynthesis of sterols” (priority 1977, dated 1980).

Tests used:
serum cholesterol = assay: Serum cholesterol concentration in rats, sterol in Cholesterol Free Test Diet (Examples 43, 46); format: in vivo, rat (male, Sprague-Dawley)
Text: (§1) Male rats of the Sprague-Dawley strain were purchased from Sprague-Dawley Farms (Madison, Wisconsin). The rats were maintained on a light (7:00 A.M.-5:30 P.M.)--dark (5:30 P.M.-7:00 A.M.) cycle and fed a Cholesterol Free Test Diet (United States Biochemical Corporation, Cleveland, Ohio) for a period of 13 days prior to the initiation of the experimental period. Six days prior to the initiation of the experimental period blood samples were taken for assay of serum cholesterol concentration and, based upon the results of these analyses, rats were divided into 3 groups with approximately the same mean serum cholesterol concentration. The rats were then individually housed in metabolic cages (Econo-Metabolism Units, Maryland Plastics, New York, New York) for 6 days prior to the initiation of the experimental period. The animals were maintained on the light-dark cycle throughout the experimental period.
Blood samples were taken from the tail vein between 8:15 A.M. and 9:30 A.M. and at no time was more than ~0.5 ml of blood removed. Serum was obtained by centrifugation of the blood using Sure-Sep Junior (General Diagnostics, Division of Warner Lambert Company, Morris Plains, New Jersey) for 20 min at 2000-2500 rpm in a table top centrifuge (Dynac, Clay Adams Model 0091). Serum cholesterol concentration was assayed by a modification of the Cholesterol Auto Test (Bio-Dynamics, BMC Division) as described in Bio-Dynamics/bmc Cholesterol Instruction (revised December, 1975).
(§2) 5α-Cholest-8(14)-en-3β-ol-15-one (500 mg), prepared and purified as described in Example 1, was added in small portions to 500 g of the Cholesterol Free Test Diet in a 2 liter glass stoppered bottle. After each addition of the sterol to the diet, the bottle was rolled and shaken thoroughly. The resulting 0.1% diet with respect to the 5α-cholest-8(14)-en-3β-ol-15-one was stored at 4° C. Prior to use in feeding, the diet was allowed to warm to room temperature (~25° C.).
(§3) 2. Ketone group--7 rats with free access to the Cholesterol Free Test Diet containing 0.1% 5α-cholest-8(14)-en-3β-ol-15-one.
(§4) Another experiment following essentially the procedure of Example 43 was performed in which the 5α-cholest-8(14)-en-3β-ol-15-one was incorporated into the Cholesterol Free Test Diet at a concentration of 0.2%.

[1] = Food consumption of rats, sterol in diet; format: in vivo, rat (male, Sprague-Dawley)
Text: as §1
The individual animals were weighed daily throughout the experimental period. Food consumption by the individual rats was similarly recorded daily. No significant spillage of the food or contamination of the food by feces or urine was possible due to the nature of the matabolic cage and the food receptacles utilized.
as §2, §3, §4

plasma cholesterol = assay: Plasma cholesterol concentration in mice, ketone in diet (Example 47); format: in vivo, mouse; details: 0.2% in diet; after eight days; 7-week-old mice
Method: Another dietary experiment with 5β-cholest-8(14)-en-3β-ol-15-one was performed using 7-week-old mice. Five mice were fed the ketone at a level of 0.2% in a diet which was essentially free of animal sterols for eight days. Five control pair-fed mice were fed the same diet to which the ketone was not added. The mean plasma cholesterol concentration in the ketone group after the eight day experiment was 35.8(±3.6, standard error of mean) mg per 100 ml of plasma while the corresponding value for the pair-fed group was 114.4 (±3.4, standard error of mean). It should be noted that very closely matched pairfeeding is difficult to perform in mice of this age due to the small amounts of food which are consumed and which must be accurately determined in such experiments.

[2] = 0.1% in diet, day 4, listed as Ketone
[3] = 0.1% in diet, day 8, listed as Ketone

CC(C)CCC[C@@H](C)[C@H]1CC(=O)C2=C3CC[C@H]4C[C@@H](O)CC[C@]4(C)[C@H]3CC[C@@]21C [5α-Cholest-8(14)-en-3β-ol-15-one, 5α-cholest-8(14)-en-3β-ol-15-one]
effect on serum cholesterol concentrations (in words) (serum cholesterol; 0.1% in diet): marked effect in lowering the serum cholesterol concentrations | Serum cholesterol concentration (serum cholesterol; 0.1% in diet, day 0): 71.2 ± 0.9 mg per 100 ml | Serum cholesterol concentration (serum cholesterol; 0.1% in diet, day 4): 50.1 mg per 100 ml | Serum cholesterol concentration (serum cholesterol; [2]): 50.1 ± 2.3 mg per 100 ml | Serum cholesterol concentration, percentage of initial levels in individual rats (serum cholesterol; [2]): 70.5 ± 3.6% | Serum cholesterol concentration, percentage of initial levels in individual rats (serum cholesterol; 0.1% in diet, day 4, listed as ketone): 70.5% | Serum cholesterol concentration (serum cholesterol; 0.1% in diet, day 8): 36.9 mg per 100 ml | Serum cholesterol concentration (serum cholesterol; [3]): 36.9 ± 3.3 mg per 100 ml | Serum cholesterol concentration, percentage of initial levels in individual rats (serum cholesterol; [3]): 51.8 ± 4.4% | Serum cholesterol concentration, percentage of initial levels in individual rats (serum cholesterol; 0.1% in diet, day 8, listed as ketone): 51.8% | effect on serum cholesterol concentration (in words) (serum cholesterol; 0.2% in diet): marked effect on the serum cholesterol concentration | Serum cholesterol concentration (serum cholesterol; 0.2% in diet, day 0): 80.5 ± 2.8 mg per 100 ml | Serum cholesterol concentration (serum cholesterol; 0.2% in diet, day 4): 73.2 mg per 100 ml | Serum cholesterol levels, percentage of initial levels in individual rats (serum cholesterol; 0.2% in diet, day 4): 91.6 ± 4.3% | Serum cholesterol concentration (serum cholesterol; 0.2% in diet, day 4, listed as Ketone): 73.2 ± 3.0 mg per 100 ml | Serum cholesterol concentration (serum cholesterol; 0.2% in diet, day 7): 32.2 mg per 100 ml | Serum cholesterol levels, percentage of initial levels in individual rats (serum cholesterol; 0.2% in diet, day 7): 40.6 ± 7.9% | Serum cholesterol concentration (serum cholesterol; 0.2% in diet, day 7, listed as Ketone): 32.2 ± 5.9 mg per 100 ml | Serum cholesterol concentration (serum cholesterol; 0.2% in diet, day 9): 30.3 mg per 100 ml | Serum cholesterol levels, percentage of initial levels in individual rats (serum cholesterol; 0.2% in diet, day 9): 37.9 ± 8.8% | Serum cholesterol concentration (serum cholesterol; 0.2% in diet, day 9, listed as Ketone): 30.3 ± 6.2 mg per 100 ml | food consumption relative to ad libidum group (in words) ([1]; 0.1% in diet): significantly less than that of the rats in the ad libidum group | Food consumption ([1]; 0.1% in diet, day 0): 10.4 ± 0.7 g | Food consumption ([1]; 0.1% in diet, day 1): 5.1 ± 0.3 g | Food consumption ([1]; 0.1% in diet, day 2): 7.1 ± 0.3 g | Food consumption ([1]; 0.1% in diet, day 3): 5.5 ± 0.3 g | Food consumption ([1]; 0.1% in diet, day 4): 7.1 ± 0.5 g | Food consumption ([1]; 0.1% in diet, day 5): 5.8 ± 0.5 g | Food consumption ([1]; 0.1% in diet, day 6): 6.6 ± 0.5 g | Food consumption ([1]; 0.1% in diet, day 7): 7.5 ± 0.5 g | food consumption relative to ad libidum group (in words) ([1]; 0.2% in diet): significantly less than that of the rats in the ad libidum group | Daily food consumption ([1]; 0.2% in diet, day 0): 7.2 ± 0.6 g | Daily food consumption ([1]; 0.2% in diet, day 1): 4.4 ± 1.1 g | Daily food consumption ([1]; 0.2% in diet, day 2): 4.8 ± 0.4 g | Daily food consumption ([1]; 0.2% in diet, day 3): 4.8 ± 0.2 g | Daily food consumption ([1]; 0.2% in diet, day 4): 5.5 ± 0.4 g | Daily food consumption ([1]; 0.2% in diet, day 5): 5.5 ± 0.3 g | Daily food consumption ([1]; 0.2% in diet, day 6): 5.4 ± 0.2 g | Daily food consumption ([1]; 0.2% in diet, day 7): 5.1 ± 0.2 g | Daily food consumption ([1]; 0.2% in diet, day 8): 4.3 ± 0.6 g | mean plasma cholesterol concentration (standard error of mean) (plasma cholesterol): 35.8 mg per 100 ml of plasma
